Measured values: patent US20200333324A1, “METHOD OF PREDICTING CLINICAL OUTCOME OF ANTICANCER AGENTS” (MITRA RXDX, INC., priority 2017, published 2020)

How the values were obtained:
Type in all cases: cell-based, human
[1] = tested on: HNSCC tumor tissue; experiment: M-score clinical outcome predictor: tumor microenvironment platform assays (WST-1, LDH, ATP, glucose uptake, Caspase 3/8, Ki67, H&E) input into machine-trained algorithm; set-up: scale not given here
Excerpt: Utilizing primary and late stage HNSCC patient samples (n=16) we interrogated phenotypic response to both Pembrolizumab (KEYTRUDA) and Nivolumab (OPDIVO), two FDA-approved PD-1 inhibitors, as single agents on the tumor microenvironment platform with tumor tissue from the same patient. To do this, we assayed tumor proliferation (Ki67) and apoptosis (active caspase-3), in addition to using a comprehensive panel of immunological assays to evaluate changes in the immune compartment (CD8, CD45, FOXP3, CXCR4, CD68, PDL1, PD1) and cytokine profile (IL6, IL8, IFN-g and IL12).

[2] = tested on: Tumor sections; experiment: FACS analysis for CD25, CD127 and FOXP3 expression, tumor sections; conditions: for functional Treg cells (CD25, CD127, FOXP3 FACS): platform containing tumor tissue
Method: (§1) The effect of treatment with Nivolumab and Pembrolizumab on CD25, CD127, and FOXP3 expression was then evaluated. Tumor sections or PBNCs from the same patient cultured for 3 days in the tumor microenvironment platform were treated with Pembrolizumab, Nivolumab, or IgG control for one day followed by FACS analysis for expression of CD25, CD127, and FOXP3.

[3] = tested on: PBNCs; experiment: FACS analysis for CD25, CD127 and FOXP3 expression, PBNCs
Method: as §1

[4] = tested on: HNSCC tumor tissue; experiment: M-score clinical outcome predictor: tumor microenvironment platform assays (WST-1, LDH, ATP, glucose uptake, Caspase 3/8, Ki67, H&E) input into machine-trained algorithm; set-up: scale not given here; remark: listed apart in the source

Pembrolizumab
M-score ([1]; Patient ID 2918): 13 | M-score ([1]; Patient ID 2928): 16 | M-score ([1]; Patient ID 2941): 38 | M-score ([1]; Patient ID 2948): 4 | M-score ([1]; Patient ID 2949): 6 | M-score ([1]; Patient ID 2956): 6 | M-score ([1]; Patient ID 2978): 22 | M-score ([1]; Patient ID 2981): 7 | CD25^+/FOXP3^− Tumor (% total cells) ([2]; Non-Responder, control 6.52): 5.03 % total cells | CD25^+/CD127^+ Tumor (% total cells) ([2]; Non-Responder, control 19.6): 17.8 % total cells | CD25^−/CD127^− Tumor (% total cells) ([2]; Non-Responder, control 22.1): 24.9 % total cells | CD25^−/FOXP3^− Tumor (% total cells) ([2]; Non-Responder, control 23.6): 10.7 % total cells | CD25^+/CD127^− Tumor (% total cells) ([2]; Non-Responder, control 25.4): 24.3 % total cells | CD25^−/CD127^+ Tumor (% total cells) ([2]; Non-Responder, control 33.0): 32.9 % total cells | CD25^+/FOXP3^+ Tumor (% total cells) ([2]; Non-Responder, control 34.4): 35.8 % total cells | CD25^− FOXP3^+ Tumor (% total cells) ([2]; Non-Responder, control 35.5): 48.4 % total cells | CD25^−/CD127^− Tumor (% total cells) ([2]; Responder, control 12.2): 18.4 % total cells | CD25^− FOXP3^+ Tumor (% total cells) ([2]; Responder, control 18.9): 42.5 % total cells | CD25^−/FOXP3^− Tumor (% total cells) ([2]; Responder, control 20.3): 6.67 % total cells | CD25^+/CD127^− Tumor (% total cells) ([2]; Responder, control 23.0): 17.7 % total cells | CD25^−/CD127^+ Tumor (% total cells) ([2]; Responder, control 24.3): 31.2 % total cells | CD25^+/FOXP3^− Tumor (% total cells) ([2]; Responder, control 25.7): 5.83 % total cells | CD25^+/FOXP3^+ Tumor (% total cells) ([2]; Responder, control 35.1): 45.0 % total cells | CD25^+/CD127^+ Tumor (% total cells) ([2]; Responder, control 40.5): 32.6 % total cells | functional Treg cells (CD25, CD127, FOXP3 FACS) [2]: patient sample-dependent functional Treg cell depression | CD25^+/FOXP3^− PBMCs (% total cells) ([3]; Non-Responder, control 3.67): 2.8 % total cells | CD25^+/CD127^+ PBMCs (% total cells) ([3]; Non-Responder, control 14.6): 25.6 % total cells | CD25^+/CD127^− PBMCs (% total cells) ([3]; Non-Responder, control 15.1): 7.71 % total cells | CD25^−/FOXP3^− PBMCs (% total cells) ([3]; Non-Responder, control 18.2): 10.9 % total cells | CD25^+/FOXP3^+ PBMCs (% total cells) ([3]; Non-Responder, control 22.1): 29.1 % total cells | CD25^−/CD127^+ PBMCs (% total cells) ([3]; Non-Responder, control 26.2): 45.3 % total cells | CD25^−/CD127^− PBMCs (% total cells) ([3]; Non-Responder, control 44.1): 21.4 % total cells | CD25^− FOXP3^+ PBMCs (% total cells) ([3]; Non-Responder, control 56.0): 57.2 % total cells | CD25^+/FOXP3^− PBMCs (% total cells) ([3]; Responder, control 3.04): 3.94 % total cells | CD25^+/CD127^− PBMCs (% total cells) ([3]; Responder, control 11.7): 7.77 % total cells | CD25^+/CD127^+ PBMCs (% total cells) ([3]; Responder, control 16.8): 20.4 % total cells | CD25^+/FOXP3^+ PBMCs (% total cells) ([3]; Responder, control 21.7): 22.1 % total cells | CD25^−/FOXP3^− PBMCs (% total cells) ([3]; Responder, control 23.2): 20.0 % total cells | CD25^−/CD127^+ PBMCs (% total cells) ([3]; Responder, control 24.8): 46.4 % total cells | CD25^−/CD127^− PBMCs (% total cells) ([3]; Responder, control 46.6): 25.4 % total cells | CD25^− FOXP3^+ PBMCs (% total cells) ([3]; Responder, control 52.1): 54.0 % total cells | M-score ([4]; Patient ID 2916): 8 | M-score ([4]; Patient ID 2926): 28 | M-score ([4]; Patient ID 2939): 4 | M-score ([4]; Patient ID 2942): 18 | M-score ([4]; Patient ID 2950): 13 | M-score ([4]; Patient ID 2963): 9 | M-score ([4]; Patient ID 2979): 27 | M-score ([4]; Patient ID 2980): 19

Nivolumab
M-score ([1]; Patient ID 2918): 27 | M-score ([1]; Patient ID 2928): 19 | M-score ([1]; Patient ID 2941): 41 | M-score ([1]; Patient ID 2948): 12 | M-score ([1]; Patient ID 2949): 11 | M-score ([1]; Patient ID 2956): 10 | M-score ([1]; Patient ID 2978): 33 | M-score ([1]; Patient ID 2981): 6 | CD25^+/FOXP3^− Tumor (% total cells) ([2]; Non-Responder, control 6.52): 6.45 % total cells | CD25^+/CD127^+ Tumor (% total cells) ([2]; Non-Responder, control 19.6): 16.1 % total cells | CD25^−/CD127^− Tumor (% total cells) ([2]; Non-Responder, control 22.1): 21.7 % total cells | CD25^−/FOXP3^− Tumor (% total cells) ([2]; Non-Responder, control 23.6): 17.5 % total cells | CD25^+/CD127^− Tumor (% total cells) ([2]; Non-Responder, control 25.4): 22.1 % total cells | CD25^−/CD127^+ Tumor (% total cells) ([2]; Non-Responder, control 33.0): 40.1 % total cells | CD25^+/FOXP3^+ Tumor (% total cells) ([2]; Non-Responder, control 34.4): 29.5 % total cells | CD25^− FOXP3^+ Tumor (% total cells) ([2]; Non-Responder, control 35.5): 46.5 % total cells | CD25^−/CD127^− Tumor (% total cells) ([2]; Responder, control 12.2): 15.6 % total cells | CD25^− FOXP3^+ Tumor (% total cells) ([2]; Responder, control 18.9): 45.7 % total cells | CD25^−/FOXP3^− Tumor (% total cells) ([2]; Responder, control 20.3): 4.62 % total cells | CD25^+/CD127^− Tumor (% total cells) ([2]; Responder, control 23.0): 25.4 % total cells | CD25^−/CD127^+ Tumor (% total cells) ([2]; Responder, control 24.3): 31.8 % total cells | CD25^+/FOXP3^− Tumor (% total cells) ([2]; Responder, control 25.7): 5.20 % total cells | CD25^+/FOXP3^+ Tumor (% total cells) ([2]; Responder, control 35.1): 44.5 % total cells | CD25^+/CD127^+ Tumor (% total cells) ([2]; Responder, control 40.5): 27.2 % total cells | functional Treg cells (CD25, CD127, FOXP3 FACS) [2]: patient sample-dependent functional Treg cell depression | CD25^+/FOXP3^− PBMCs (% total cells) ([3]; Non-Responder, control 3.67): 1.40 % total cells | CD25^+/CD127^+ PBMCs (% total cells) ([3]; Non-Responder, control 14.6): 25.1 % total cells | CD25^+/CD127^− PBMCs (% total cells) ([3]; Non-Responder, control 15.1): 8.22 % total cells | CD25^−/FOXP3^− PBMCs (% total cells) ([3]; Non-Responder, control 18.2): 7.90 % total cells | CD25^+/FOXP3^+ PBMCs (% total cells) ([3]; Non-Responder, control 22.1): 29.0 % total cells | CD25^−/CD127^+ PBMCs (% total cells) ([3]; Non-Responder, control 26.2): 44.4 % total cells | CD25^−/CD127^− PBMCs (% total cells) ([3]; Non-Responder, control 44.1): 22.3 % total cells | CD25^− FOXP3^+ PBMCs (% total cells) ([3]; Non-Responder, control 56.0): 61.7 % total cells | CD25^+/FOXP3^− PBMCs (% total cells) ([3]; Responder, control 3.04): 8.91 % total cells | CD25^+/CD127^− PBMCs (% total cells) ([3]; Responder, control 11.7): 6.53 % total cells | CD25^+/CD127^+ PBMCs (% total cells) ([3]; Responder, control 16.8): 30.4 % total cells | CD25^+/FOXP3^+ PBMCs (% total cells) ([3]; Responder, control 21.7): 24.0 % total cells | CD25^−/FOXP3^− PBMCs (% total cells) ([3]; Responder, control 23.2): 29.8 % total cells | CD25^−/CD127^+ PBMCs (% total cells) ([3]; Responder, control 24.8): 44.2 % total cells | CD25^−/CD127^− PBMCs (% total cells) ([3]; Responder, control 46.6): 18.9 % total cells | CD25^− FOXP3^+ PBMCs (% total cells) ([3]; Responder, control 52.1): 37.3 % total cells | M-score ([4]; Patient ID 2916): 13 | M-score ([4]; Patient ID 2926): 31 | M-score ([4]; Patient ID 2939): 5 | M-score ([4]; Patient ID 2942): 28 | M-score ([4]; Patient ID 2950): 16 | M-score ([4]; Patient ID 2963): 5 | M-score ([4]; Patient ID 2979): 9 | M-score ([4]; Patient ID 2980): 12
